Results from patent US12240844B2 (Voronoi, Inc., priority 2019, dated 2025).
pIC50: −log10 of the molar value.

What was measured:
LRRK2 = LRRK2 (Homo sapiens, UniProt Q5S007); experiment: LRRK2 enzyme inhibition, ADP-Glo kinase assay; assay type: biochemical; set-up: purchased Invitrogen PR8604B
Method in brief: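 ADP-Glo luminescence read after 2 h at 25° C, 10 μM ATP, 25 ng purified human LRRK2 and […] substrate in Tris-HCl pH7.4 buffer with MgCl2, BSA, DTT. Twelve final concentrations, 50 μM down to 0.000001024 μM; IC50 (nM) from inhibition relative to untreated solvent control.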

human GST-CLK1 (129-end) = biological target: T1, human GST-CLK1 (129-end) (Homo sapiens, UniProt P49759); experiment: GST-CLK1 enzyme inhibition, ADP-Glo kinase assay; assay type: biochemical; conditions: ATP 10 uM
T1 construct: purified human GST-CLK1 (129-end, Signalchem) enzyme; GST; purchased Signalchem
Method in brief: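 ADP formation was read by ADP-Glo luminescence after 1 h at 25° C with 3 ng human GST-CLK1 (129-end), substrate and 10 uM ATP in Tris pH 7.4 buffer containing MgCl2, BSA and DTT. Inhibition relative to untreated solvent control gave IC50 (nM), run in triplicate.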

[1] = biological target: T2, human GST-DYRK1A (full length) (Homo sapiens, UniProt Q13627); experiment: GST-DYRK1A enzyme inhibition, ADP-Glo kinase assay; assay type: biochemical; conditions: read-out: DYRK1 IC50
T2 construct: purified human GST-DYRK1A (full length, Thermo scientifics) enzyme; GST; purchased Thermo scientifics
Method in brief: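 ADP-Glo luminescence quantified kinase activity after a 1 h, 25° C reaction of 10 ng full-length GST-tagged human DYRK1A, substrate and 10 uM ATP in Tris-HCl buffer pH 7.4 with MgCl2, BSA and DTT. Triplicate IC50 values (nM) calculated relative to untreated solvent control.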

human DYRK1A and Tau = experiment: Tau phosphorylation inhibition, ClariCELL Kinase Cell-Based Assay (Carnabio)
Method in brief: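 HEK293 cells transiently expressing human DYRK1A and Tau were exposed to compound, then lysed. Released Tau was captured on plate and its phosphorylation quantified by ELISA with a phospho-Tau-specific antibody.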

LRRK2, sequence (Q5S007 970-2527 limits assumed): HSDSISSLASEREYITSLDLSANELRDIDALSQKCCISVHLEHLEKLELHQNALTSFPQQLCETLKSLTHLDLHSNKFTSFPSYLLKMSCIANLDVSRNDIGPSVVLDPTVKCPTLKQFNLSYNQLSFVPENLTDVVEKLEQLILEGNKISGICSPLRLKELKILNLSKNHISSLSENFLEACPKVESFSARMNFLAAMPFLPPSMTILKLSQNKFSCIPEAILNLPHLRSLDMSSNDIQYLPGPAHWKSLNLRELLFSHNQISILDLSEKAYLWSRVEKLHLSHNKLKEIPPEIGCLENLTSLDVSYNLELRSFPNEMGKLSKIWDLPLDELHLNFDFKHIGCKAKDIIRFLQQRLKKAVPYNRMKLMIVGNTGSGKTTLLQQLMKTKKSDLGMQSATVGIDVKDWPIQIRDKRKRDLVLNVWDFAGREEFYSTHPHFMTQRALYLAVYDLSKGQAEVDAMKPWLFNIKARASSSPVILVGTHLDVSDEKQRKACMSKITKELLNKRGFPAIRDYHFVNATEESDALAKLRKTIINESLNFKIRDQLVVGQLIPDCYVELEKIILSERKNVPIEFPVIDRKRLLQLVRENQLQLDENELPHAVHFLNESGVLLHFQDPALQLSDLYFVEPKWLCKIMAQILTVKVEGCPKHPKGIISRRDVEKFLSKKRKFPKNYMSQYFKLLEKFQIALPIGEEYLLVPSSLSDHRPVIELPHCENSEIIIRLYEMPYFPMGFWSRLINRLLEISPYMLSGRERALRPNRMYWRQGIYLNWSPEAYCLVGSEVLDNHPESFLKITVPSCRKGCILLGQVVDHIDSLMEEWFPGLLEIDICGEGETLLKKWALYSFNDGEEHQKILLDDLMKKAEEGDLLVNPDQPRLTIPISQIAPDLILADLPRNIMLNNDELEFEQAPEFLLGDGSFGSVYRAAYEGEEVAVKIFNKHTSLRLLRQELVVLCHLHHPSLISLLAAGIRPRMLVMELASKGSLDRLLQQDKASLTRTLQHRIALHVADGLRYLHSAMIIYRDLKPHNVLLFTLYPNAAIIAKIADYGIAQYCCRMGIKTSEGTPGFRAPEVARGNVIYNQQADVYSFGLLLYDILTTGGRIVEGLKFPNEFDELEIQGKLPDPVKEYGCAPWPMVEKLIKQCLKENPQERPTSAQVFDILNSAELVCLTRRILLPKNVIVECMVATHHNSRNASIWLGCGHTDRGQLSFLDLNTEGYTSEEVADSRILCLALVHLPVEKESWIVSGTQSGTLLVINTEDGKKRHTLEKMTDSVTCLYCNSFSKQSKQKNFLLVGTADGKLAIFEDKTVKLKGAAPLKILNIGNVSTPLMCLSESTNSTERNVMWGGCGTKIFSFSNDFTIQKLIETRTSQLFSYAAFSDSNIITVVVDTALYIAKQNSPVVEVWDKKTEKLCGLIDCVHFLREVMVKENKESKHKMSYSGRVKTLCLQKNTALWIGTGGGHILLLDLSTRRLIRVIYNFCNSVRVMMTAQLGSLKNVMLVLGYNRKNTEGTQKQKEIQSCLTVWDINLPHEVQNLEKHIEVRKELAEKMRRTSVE
T1 sequence (P49759 129-484 limits assumed): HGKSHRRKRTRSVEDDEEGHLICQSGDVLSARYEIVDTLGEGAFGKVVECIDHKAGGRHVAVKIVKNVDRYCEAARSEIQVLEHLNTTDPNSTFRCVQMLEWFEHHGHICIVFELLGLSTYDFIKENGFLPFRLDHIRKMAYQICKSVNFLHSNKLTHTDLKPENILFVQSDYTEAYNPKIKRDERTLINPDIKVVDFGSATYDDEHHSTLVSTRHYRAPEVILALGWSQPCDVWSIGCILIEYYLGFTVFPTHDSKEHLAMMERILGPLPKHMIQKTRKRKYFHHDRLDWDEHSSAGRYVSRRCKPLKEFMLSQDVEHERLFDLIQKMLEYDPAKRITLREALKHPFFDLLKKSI

Row | Compound | pIC50 (LRRK2) | pIC50 (human GST-CLK1 (129-end)) | pIC50 [1] | inhibition at 0.25 µM (human DYRK1A and Tau) [%] | inhibition at 0.5 µM (human DYRK1A and Tau) [%] | inhibition at 1 µM (human DYRK1A and Tau) [%]
1 | CNc1cc(Nc2ccc(P3(=O)CCN(C4CC4)CC3)cc2OC)nc2[nH]cc(C#N)c12 [Example 146, 6-((4-(1-cyclopropyl-4-oxido-1,4-azaphosphinan-4-yl)-2-methoxyphenyl)amino)-4-(methylamino)-1H-pyrrolo[2,3-b]pyridine-3-carbonitrile] | > 7.00 | 6.00 to 6.52 | 6.00 to 6.52 | – | – | –
2 | O=C(c1ccc(Nc2cc(C3CC3)c3c(C(F)(F)F)c[nH]c3n2)c2c1CCO2)N1CC[C@@H](N2CCOCC2)C1 [Example 238, (R)-(7-((4-cyclopropyl-3-(trifluoromethyl)-1H-pyrrolo[2,3-b]pyridin-6-yl)amino)-2,3-dihydrobenzofuran-4-yl)(3-morpholinopyrrolidin-1-yl)methanone] | – | – | – | 9.8 | 26.4 | 48.3
3 | COCCNc1cc(Nc2ccc(P3(=O)CCN(C4CC4)CC3)cc2OC)nc2[nH]cc(C#N)c12 [Example 148, 6-((4-(1-cyclopropyl-4-oxido-1,4-azaphosphinan-4-yl)-2-methoxyphenyl)amino)-4-((2-methoxyethyl)amino)-1H-pyrrolo[2,3-b]pyridine-3-carbonitrile] | > 7.00 | 6.00 to 6.52 | 6.00 to 6.52 | – | – | –
4 | O=C(c1ccc(Nc2cc(C3CC3)c3c(C(F)(F)F)c[nH]c3n2)c2c1CCO2)N1CCOCC1 [Example 91, (7-((4-cyclopropyl-3-(trifluoromethyl)-1H-pyrrolo[2,3-b]pyridin-6-yl)amino)-2,3-dihydrobenzofuran-4-yl)(morpholino) methanone] | 6.00 to 6.52 | – | – | 12.9 | 33.1 | 44.3
5 | COCCNc1cc(Nc2ccc(C(=O)N3CCC(N4CCOCC4)CC3)c3c2OCC3)nc2[nH]cc(C(F)(F)F)c12 [Example 55, (7-((4-((2-methoxyethyl)amino)-3-(trifluoromethyl)-1H-pyrrolo[2,3-b]pyridin-6-yl)amino)-2,3-dihydrobenzofuran-4-yl)(4-morpholinopiperidin-1-yl)methanone] | > 7.00 | > 7.00 | > 7.00 | – | – | –
6 | CCNc1cc(Nc2ccc(C(=O)N3CCC(N4CCOCC4)CC3)c3c2OCO3)nc2[nH]cc(C(F)(F)F)c12 [Example 37, (7-((4-(ethylamino)-3-(trifluoromethyl)-1H-pyrrolo[2,3-b]pyridin-6-yl)amino)benzo[d][1,3]dioxol-4-yl)(4-morpholinopiperidin-1-yl)methanone] | > 7.00 | > 7.00 | > 7.00 | – | – | –
7 | O=C(c1ccc(Nc2cc(C3CC3)c3c(C(F)(F)F)c[nH]c3n2)c2c1CCO2)N1CC[C@H](N2CCOCC2)C1 [Example 237, (S)-(7-((4-cyclopropyl-3-(trifluoromethyl)-1H-pyrrolo[2,3-b]pyridin-6-yl)amino)-2,3-dihydrobenzofuran-4-yl)(3-morpholinopyrrolidin-1-yl)methanone] | – | – | – | 7.7 | 20.5 | 34.5
8 | COc1cc(P2(=O)CCN(C(C)=O)CC2)ccc1Nc1cc(C2CC2)c2c(C(F)(F)F)c[nH]c2n1 [Example 48, 1-(4-(4-((4-cyclopropyl-3-(trifluoromethyl)-1H-pyrrolo[2,3-b]pyridin-6-yl)amino)-3-methoxyphenyl)-4-oxido-1,4-azaphosphinan-1-yl)ethan-1-one] | 6.00 to 6.52 | 6.00 to 6.52 | – | – | – | –
9 | CCCNc1cc(Nc2ccc(C(=O)N3CCC(N4CCOCC4)CC3)c3c2OCCO3)nc2[nH]cc(C(F)(F)F)c12 [Example 162, (4-morpholinopiperidin-1-yl)(8-((4-(propylamino)-3-(trifluoromethyl)-1H-pyrrolo[2,3-b]pyridin-6-yl)amino)-2,3-dihydrobenzo[b] [1,4]dioxin-5-yl)methanone] | > 7.00 | > 7.00 | 6.52 to 7.00 | – | – | –
10 | O=C(c1ccc(Nc2cc(C3CC3)c3c(C(F)(F)F)c[nH]c3n2)c2c1OCO2)N1CCC(N2CCOCC2)CC1 [Example 49, (7-((4-cyclopropyl-3-(trifluoromethyl)-1H-pyrrolo[2,3-b]pyridin-6-yl)amino)benzo[d][1,3]dioxol-4-yl)(4-morpholinopiperidin-1-yl)methanone] | > 7.00 | > 7.00 | – | – | – | –
11 | CNc1cc(Nc2ccc(C(=O)N3CCC(N4CCOCC4)CC3)c3c2OCCO3)nc2[nH]cc(C(F)(F)F)c12 [Example 160, (8-((4-(methylamino)-3-(trifluoromethyl)-1H-pyrrolo[2,3-b]pyridin-6-yl)amino)-2,3-dihydrobenzo [b] [1,4]dioxin-5-yl)(4-morpholinopiperidin-1-yl)methanone] | > 7.00 | > 7.00 | 6.52 to 7.00 | – | – | –

Continued, in another order:

Row | pIC50 (LRRK2) | pIC50 (human GST-CLK1 (129-end)) | pIC50 [1] | Compound | inhibition at 0.25 µM (human DYRK1A and Tau) [%] | inhibition at 0.5 µM (human DYRK1A and Tau) [%] | inhibition at 1 µM (human DYRK1A and Tau) [%]
12 | 6.52 to 7.00 | > 7.00 | > 7.00 | CNc1cc(Nc2ccc(P3(=O)CCN(C4CC4)CC3)cc2OC)nc2[nH]cc(C(F)(F)F)c12 [Example 205, 1-cyclopropyl-4-(3-methoxy-4-((4-(methylamino)-3-(trifluoromethyl)-1H-pyrrolo[2,3-b]pyridin-6-yl)amino)phenyl)-1,4-azaphosphinane 4-oxide] | – | – | –
13 | – | > 7.00 | > 7.00 | CCNc1cc(Nc2ccc(C(=O)N3CCN(C4COC4)CC3)c3c2OCC3)nc2[nH]cc(C(F)(F)F)c12 [Example 248, (7-((4-(ethylamino)-3-(trifluoromethyl)-1H-pyrrolo[2,3-b]pyridin-6-yl)amino)-2,3-dihydrobenzofuran-4-yl)(4-(oxetan-3-yl)piperazin-1-yl)methanone] | 53.5 | 76 | 95.1
14 | > 7.00 | 6.00 to 6.52 | – | N#Cc1c[nH]c2nc(Nc3ccc(C(=O)N4CCOCC4)c4c3OCCO4)cc(C3CC3)c12 [Example 225, 4-cyclopropyl-6-((8-(morpholine-4-carbonyl)-2,3-dihydrobenzo[b] [1,4]dioxin-5-yl)amino)-1H-pyrrolo[2,3-b]pyridine-3-carbonitrile] | – | – | –
15 | 6.52 to 7.00 | > 7.00 | – | O=C(c1ccc(Nc2cc(C3CC3)c3c(C(F)(F)F)c[nH]c3n2)c2c1OCCO2)N1CCC(N2CCOCC2)CC1 [Example 221, (8-((4-cyclopropyl-3-(trifluoromethyl)-1H-pyrrolo[2,3-b]pyridin-6-yl)amino)-2,3-dihydrobenzo [b] [1,4]dioxin-5-yl)(4-morpholinopiperidin-1-yl)methanone] | 6.2 | 24.7 | 23
16 | > 7.00 | > 7.00 | – | N#Cc1c[nH]c2nc(Nc3ccc(C(=O)N4CCC(N5CCOCC5)CC4)c4c3OCCO4)cc(C3CC3)c12 [Example 226, 4-cyclopropyl-6-((8-(4-morpholinopiperidine-1-carbonyl)-2,3-dihydrobenzo[b] [1,4]dioxin-5-yl)amino)-1H-pyrrolo[2,3-b]pyridine-3-carbonitrile] | – | – | –
17 | > 7.00 | > 7.00 | > 7.00 | CNc1cc(Nc2ccc(C(=O)N3CCC(N4C[C@@H]5C[C@H]4CO5)CC3)c3c2OCC3)nc2[nH]cc(C(F)(F)F)c12 [Example 241, (4-((1S,4S)-2-oxa-5-azabicyclo[2.2.1]heptan-5-yl)piperidin-1-yl)(7-((4-(methylamino)-3-(trifluoromethyl)-1H-pyrrolo[2,3-b]pyridin-6-yl)amino)-2,3-dihydrobenzofuran-4-yl)methanone] | – | – | –
18 | – | > 7.00 | > 7.00 | CCNc1cc(Nc2ccc(C(=O)N3CCC(N4C[C@H]5C[C@@H]4CO5)CC3)c3c2OCC3)nc2[nH]cc(C(F)(F)F)c12 [Example 244, (4-((1R,4R)-2-oxa-5-azabicyclo[2.2.1]heptan-5-yl)piperidin-1-yl)(7-((4-(ethylamino)-3-(trifluoromethyl)-1H-pyrrolo[2,3-b]pyridin-6-yl)amino)-2,3-dihydrobenzofuran-4-yl)methanone] | 58 | 86 | 107
19 | 6.00 to 6.52 | 6.00 to 6.52 | 6.00 to 6.52 | O=C(c1ccc(Nc2cc(C3CC3)c3c(C(F)(F)F)c[nH]c3n2)c2c1OCCO2)N1CCOCC1 [Example 220, (8-((4-cyclopropyl-3-(trifluoromethyl)-1H-pyrrolo[2,3-b]pyridin-6-yl)amino)-2,3-dihydrobenzo[b] [1,4]dioxin-5-yl)(morpholino) methanone] | – | – | –
20 | 6.52 to 7.00 | 6.00 to 6.52 | 6.00 to 6.52 | CCNc1cc(Nc2ccc(P3(=O)CCN(C4CC4)CC3)cc2OC)nc2[nH]cc(C(F)(F)F)c12 [Example 206, 1-cyclopropyl-4-(4-((4-(ethylamino)-3-(trifluoromethyl)-1H-pyrrolo[2,3-b]pyridin-6-yl)amino)-3-methoxyphenyl)-1,4-azaphosphinane 4-oxide] | – | – | –
